Data on 19 molecules can be found in patent publication US8318731B2, “Pyrrolopyrimidines” (Janssen Pharmaceutica NV, priority 2007, dated 2012).

One assay deals with T1, PLK4 (h) (Homo sapiens, UniProt O00444).
T1 sequence (O00444 1-970): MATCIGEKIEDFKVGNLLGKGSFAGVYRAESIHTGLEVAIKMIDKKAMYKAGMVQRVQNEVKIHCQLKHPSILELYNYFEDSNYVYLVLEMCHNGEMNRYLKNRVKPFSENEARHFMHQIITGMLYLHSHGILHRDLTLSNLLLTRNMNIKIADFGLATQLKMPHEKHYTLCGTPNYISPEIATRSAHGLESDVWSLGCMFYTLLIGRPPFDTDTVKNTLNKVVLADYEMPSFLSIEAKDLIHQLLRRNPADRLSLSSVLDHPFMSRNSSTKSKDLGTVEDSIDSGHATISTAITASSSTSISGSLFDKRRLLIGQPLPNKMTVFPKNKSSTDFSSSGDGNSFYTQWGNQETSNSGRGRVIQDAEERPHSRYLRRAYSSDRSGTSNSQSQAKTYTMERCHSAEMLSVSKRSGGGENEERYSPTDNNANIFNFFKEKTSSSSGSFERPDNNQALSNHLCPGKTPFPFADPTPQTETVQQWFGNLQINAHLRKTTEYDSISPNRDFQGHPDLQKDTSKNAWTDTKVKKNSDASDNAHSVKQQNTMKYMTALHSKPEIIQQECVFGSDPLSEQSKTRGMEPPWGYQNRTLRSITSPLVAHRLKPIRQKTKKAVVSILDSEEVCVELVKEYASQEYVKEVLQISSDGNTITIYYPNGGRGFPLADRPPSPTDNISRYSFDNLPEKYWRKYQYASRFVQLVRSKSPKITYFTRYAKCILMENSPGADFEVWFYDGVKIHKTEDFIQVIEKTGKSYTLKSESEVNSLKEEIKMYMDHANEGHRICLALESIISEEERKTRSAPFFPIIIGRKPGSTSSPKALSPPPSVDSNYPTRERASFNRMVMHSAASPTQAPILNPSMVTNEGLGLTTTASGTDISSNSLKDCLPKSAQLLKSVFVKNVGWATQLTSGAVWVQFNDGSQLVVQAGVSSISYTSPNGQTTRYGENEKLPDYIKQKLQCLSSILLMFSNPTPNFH
Kind of assay: PLK-4 human kinase scintillation proximity assay (SPA). In kind it is biochemical. The following applies: 1 μM ATP, 60 minutes at r.t., read-out: PLK4 pIC50 (converted). The method, boiled down:
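Scintillation proximity read-out: EDTA-stopped reactions were captured on streptavidin SPA beads after PLK4 (19 μg/ml) had phosphorylated 10 μM biotin-peptide for 60 min at room temperature, using 1 μM ATP spiked with 2 nM 33P-ATP in pH 8.0 HEPES buffer.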
In general terms: In a scintillation proximity assay essentially only radioactivity close to the scintillant gives light.

The next assay deals with H1299. Kind of assay: Cellular proliferation assay (Alamar blue), H1299. The following applies: Homo sapiens, NCI-H1299, H1299 cells; 10% FCS; 72 h with compound; Alamar blue 4 h; read-out: pIC50 H1299 (converted). In kind it is cell-based. The method, boiled down:
(§1)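 Viable cell number is determined by Alamar blue conversion after cells are treated with compound for 72 hours, following 24 hours of growth without compound in 10% FCS. The effect is calculated against control cells.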

For a further assay, the system named is U87-MG. Put plainly: Cellular proliferation assay (Alamar blue), U87-MG. In kind it is cell-based. The following applies: Homo sapiens, U-87 MG; U87-MG cells; 10% FCS; 72 h with compound; Alamar blue 6 h; read-out: pIC50 U87MG (converted). The gist of the method:
(§2)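 Read-out: resazurin-based Alamar blue fluorescence at 544/590 nm, with dye left 24 h on PC3 and A2780, 6 h on U87-MG and 4 h on HCT-116. Beforehand, cells grew 24 h compound-free, then 72 h with compound, in 10% FCS at 37° C./5% CO2. Values are expressed against untreated controls.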

Another assay deals with MDA-MB-231. Put plainly: Cellular proliferation assay (Alamar blue), MDA-MB-231. In kind it is cell-based. The following applies: Homo sapiens, MDA-MB-231, MDA-MB-231 cells; 10% FCS; 72 h with compound; Alamar blue 24 h; read-out: pIC50 MDA/MB231 (converted). The gist of the method:
as §1
On the technique in general: Alamar Blue is a resazurin reagent that responds to reducing activity.

The next assay concerns A2780. Kind of assay: Cellular proliferation assay (Alamar blue), A2780. The following applies: Homo sapiens, A2780, A2780 cells; 10% FCS; 72 h with compound; Alamar blue 24 h; read-out: pIC50 A2780 (converted). In kind it is cell-based. The method, boiled down: as §2
The next assay relates to PC3. Kind of assay: Cellular proliferation assay (Alamar blue), PC3. In kind it is cell-based. The following applies: Homo sapiens, PC-3, PC-3 cells; 10% FCS; 72 h with compound; Alamar blue 24 h; read-out: pIC50 PC-3 (converted). The gist of the method: as §2
The test system of a further assay is HCT-116. Kind of assay: Cellular proliferation assay (Alamar blue), HCT-116. In kind it is cell-based. The following applies: Homo sapiens; HCT-116 cells; 10% FCS; 72 h with compound; Alamar blue 4 h; read-out: pIC50 HCT-116 (converted). The gist of the method: as §2

As for `COc1cc(NC(=O)COc2ccc3cc2OCC(=O)N(C)CCCN(C)Cc2c[nH]c4ncnc(c24)N3)cc(OC)c1OC` [Compound 71], the IC50 on PLK4 (h) is 79.4 nM; with H1299, 3.98 µM; in the assay with U87-MG, 2.51 µM; in the assay on MDA-MB-231, 5.01 µM; in the assay on A2780 it was 1 µM; with PC3, 6.31 µM. Further, the IC50 in the assay on HCT-116 was 2 µM.

For the molecule `COc1cc2cc(c1OC)CN(C)CC(=O)N(C)CCCc1c[nH]c3ncnc(c13)N2` [Compound 72], the IC50 was over 10000 nM on PLK4 (h); over 10 µM with H1299; over 10 µM with U87-MG; over 10 µM in the assay with MDA-MB-231; over 10 µM in the assay on A2780; over 10 µM with PC3. In the assay on HCT-116, the IC50 is over 10 µM.

For the molecule `CN1CCCN(C)C(=O)COc2cc(ccc2OC(F)F)Nc2ncnc3[nH]cc(c23)C1` [Compound 76], the IC50 was 39.8 nM at PLK4 (h); 1.26 µM with H1299; 2.51 µM in the assay on U87-MG; over 10 µM with MDA-MB-231; 0.794 µM with A2780; 2 µM in the assay on PC3. Further, the IC50 with HCT-116 was 2 µM.

Turning to `CCN(CCOC)CCOc1ccc2cc1OCC(=O)N(C)CCCN(C)Cc1c[nH]c3ncnc(c13)N2` [Compound 77], the IC50 on PLK4 (h) was 63.1 nM; in the assay with H1299, 7.94 µM; in the assay on U87-MG, 3.16 µM; in the assay on MDA-MB-231 it was 5.01 µM; in the assay with A2780, 2.51 µM; in the assay on PC3, 3.16 µM. Also, the IC50 in the assay on HCT-116 is 3.16 µM.

Consider `CN1CCCN(C)C(=O)COc2cc(ccc2OCCO)Nc2ncnc3[nH]cc(c23)C1` [Compound 80], for which the IC50 at PLK4 (h) is 63.1 nM; with H1299, over 10 µM; in the assay with U87-MG, over 10 µM; with MDA-MB-231 it was over 10 µM; with A2780 it was 6.31 µM; with PC3, over 10 µM. For the same molecule, the IC50 with HCT-116 is over 10 µM.

Take `CN1CCCN(C)C(=O)COc2cc(ccc2N2CCCC2)Nc2ncnc3[nH]cc(c23)C1` [Compound 82]: the IC50 at PLK4 (h) was 79.4 nM; in the assay with H1299, 2 µM; in the assay with U87-MG, 1.58 µM; in the assay on MDA-MB-231, 7.94 µM; with A2780 it was 2 µM; in the assay on PC3, 3.16 µM. Moreover, the IC50 in the assay with HCT-116 was 1.26 µM.

With `CN1CCN(c2ccc3cc2OCC(=O)N(C)CCCN(C)Cc2c[nH]c4ncnc(c24)N3)CC1` [Compound 84], the IC50 was 200 nM on PLK4 (h); 3.16 µM in the assay with H1299; 1.26 µM in the assay on U87-MG; 3.98 µM in the assay with MDA-MB-231; 0.501 µM in the assay with A2780; 2.51 µM with PC3. For the same molecule, the IC50 in the assay on HCT-116 was 1 µM.

Take `CN1CCCN(C)C(=O)COc2cc(ccc2N2CCOCC2)Nc2ncnc3[nH]cc(c23)C1` [Compound 85]: the IC50 on PLK4 (h) is 158 nM; in the assay on H1299 it was 2 µM; with U87-MG it was 2 µM; with MDA-MB-231 it was 7.94 µM; in the assay with A2780, 1.58 µM; in the assay on PC3, 5.01 µM. Also, in the assay on HCT-116, the IC50 is 2 µM.

For `O=C1CCCCOc2cccc(c2)Nc2ncnc3[nH]cc(c23)CN2CCN1CC2` [Compound 86], the IC50 is over 10000 nM on PLK4 (h); over 10 µM in the assay with H1299; over 10 µM in the assay with U87-MG; over 10 µM in the assay with MDA-MB-231; over 10 µM in the assay on A2780; over 10 µM with PC3. The IC50 in the assay on HCT-116 is over 10 µM.

For `COc1cc2cc(c1OC)OCCCCC(=O)N(C)CCN(C)Cc1c[nH]c3ncnc(c13)N2` [Compound 87], the IC50 at PLK4 (h) is over 10000 nM; in the assay with H1299 it was over 10 µM; in the assay with U87-MG it was over 10 µM; in the assay on MDA-MB-231 it was over 10 µM; with A2780, over 10 µM; in the assay with PC3, over 10 µM. In addition, in the assay on HCT-116, the IC50 was over 10 µM.

With `COc1ccc2cc1OCC(=O)NCC1CN(Cc3c[nH]c4ncnc(c34)N2)C1` [Compound 88], the IC50 was 501 nM on PLK4 (h); over 10 µM in the assay on H1299; 10 µM in the assay on U87-MG; over 10 µM with MDA-MB-231; over 10 µM in the assay with A2780; over 10 µM in the assay on PC3. In addition, in the assay with HCT-116, the IC50 is 5.01 µM.

Regarding `CN1CCN(C)C(=O)COc2cc(ccc2Cl)Nc2ncnc3[nH]cc(c23)C1` [Compound 98], the IC50 at PLK4 (h) is 100 nM; in the assay with H1299, over 10 µM; in the assay with U87-MG it was 6.31 µM; with MDA-MB-231 it was over 10 µM; in the assay with A2780, over 10 µM; in the assay with PC3, over 10 µM. In the assay with HCT-116, the IC50 is 5.01 µM.

Take `COc1ccc2cc1OCCCCC(=O)N1CCN(CC1)Cc1c[nH]c3ncnc(c13)N2` [Compound 103]: the IC50 is 631 nM at PLK4 (h); over 10 µM with H1299; over 10 µM in the assay with U87-MG; over 10 µM in the assay with MDA-MB-231; over 10 µM with A2780; over 10 µM with PC3. Besides, the IC50 with HCT-116 was over 10 µM.

For the molecule `O=C1CCCCOc2cc(ccc2Cl)Nc2ncnc3[nH]cc(c23)CN2CCN1CC2` [Compound 104], the IC50 is 2000 nM on PLK4 (h); over 10 µM in the assay with H1299; over 10 µM in the assay with U87-MG; over 10 µM in the assay on MDA-MB-231; over 10 µM with A2780; over 10 µM with PC3. Further, the IC50 with HCT-116 is over 10 µM.

On to `COc1ccc2cc1OCCCC(=O)N1CCN(CC1)Cc1c[nH]c3ncnc(c13)N2` [Compound 105], for which the IC50 on PLK4 (h) is 1000 nM; with H1299 it was over 10 µM; in the assay with U87-MG, over 10 µM; in the assay on MDA-MB-231, over 10 µM; in the assay on A2780 it was over 10 µM; in the assay on PC3, over 10 µM. The IC50 in the assay with HCT-116 is over 10 µM.

In the case of `O=C1CCCOc2cc(ccc2Cl)Nc2ncnc3[nH]cc(c23)CN2CCN1CC2` [Compound 106], the IC50 on PLK4 (h) was 6310 nM; in the assay with H1299, over 10 µM; in the assay with U87-MG, over 10 µM; in the assay on MDA-MB-231 it was over 10 µM; in the assay on A2780, over 10 µM; with PC3 it was over 10 µM. For the same molecule, the IC50 in the assay with HCT-116 is over 10 µM.

With `O=C1CCCOc2cccc(c2)Nc2ncnc3[nH]cc(c23)CN2CCN1CC2` [Compound 107], the IC50 was 6310 nM at PLK4 (h); over 10 µM in the assay with H1299; over 10 µM in the assay on U87-MG; over 10 µM with MDA-MB-231; over 10 µM in the assay on A2780; over 10 µM with PC3. For the same molecule, the IC50 with HCT-116 is over 10 µM.

Consider `COc1cc2cc(c1OC)OCCCCC(=O)N1CCN(CC1)Cc1c[nH]c3ncnc(c13)N2` [Compound 111], for which the IC50 is over 10000 nM on PLK4 (h); over 10 µM with H1299; over 10 µM in the assay on U87-MG; over 10 µM in the assay with MDA-MB-231; over 10 µM with A2780; over 10 µM in the assay on PC3. For the same molecule, the IC50 in the assay with HCT-116 is over 10 µM.

Regarding `COc1cc2cc(c1OC)OCCCC(=O)N1CCN(CC1)Cc1c[nH]c3ncnc(c13)N2` [Compound 112], the IC50 on PLK4 (h) is over 10000 nM; in the assay with H1299, over 10 µM; in the assay with U87-MG it was over 10 µM; in the assay with MDA-MB-231, over 10 µM; in the assay with A2780 it was over 10 µM; in the assay with PC3, over 10 µM. For the same molecule, in the assay on HCT-116, the IC50 was over 10 µM.
